We go through 3 compounds from patent US5124334A, “Benzylalcohol phospholipase A2 inhibitors” (Du Pont Merck Pharmaceutical Company, priority 1989, dated 1992).

Each structure is given as a SMILES string. Where a name gives a salt, the structure may show the parent alone.

The test system of this assay is inflammation induced by tetradecanoyl phorbol acetate (TPA). Put plainly: TPA inflammation inhibition test (TPA-induced mouse ear edema). Format: in vivo, mice. As to conditions: test compound 100 mg/ear applied topically, edema measured four hours later. The text has this: One such model is the inflammation induced by tetradecanoyl phorbol acetate (TPA), modified from the method of Kuehl et al., Nature, 1977, 265, 170; and Van Arman, Clin. Pharmacol. Ther., 1974, 16, 900. The TPA model mimics many of the inflammatory change which occur in human skin diseases such as psoriasis, since elevated levels of inflammatory arachidonic acid metabolites are found and an influx of polymorphonuclear leukocytes is observed. The test procedure used to evaluate the compounds of Formula (I) is as follows: the test compound (100 mg/ear) is applied to both ears of mice in an appropriate vehicle, such as acetone, and then the inflammatory stimulus (TPA) is applied to the right ear. Four hours later, the edema is measured by removing standard size discs from the ears using a biopsy punch. A control group of animals receives TPA in vehicle applied to the right ear, and vehicle alone to the left ear. The weights of the ear discs are determined, and the suppression of swelling observed in animals treated with the test compound is determined.
For the compound `CC(C)c1ccc2c(c1)CCC1C(C)(CNCCC(O)c3ccc(F)cc3)CCCC21C` (stereo not drawn) [Example 1, α-(2-[1,4a-Dimethyl-7-(2-propyl)-1,2,3,4,4a,9,10,10a-octahydro-1-phenanthren-1-yl]methylamino)ethyl)-4-fluorobenzenemethanol Hydrochloride], the “% Inhibition of Control Swelling” value is given as 46%.

Turning to `COc1ccc(C(O)CCNCC2(C)CCCC3(C)c4ccc(C(C)C)cc4CCC23)cc1.Cl` (stereo not drawn) [Example 12, α-(2-([1,4a-Dimethyl-1,2,3,4,4a,9,10,10a-octahydro-7-(2-propyl)-1-phenanthrenyl]methylamino)-ethyl)-4-methoxybenzenemethanol Hydrochloride], the “% Inhibition of Control Swelling” value came to 27%.

On to `CC(C)c1ccc2c(c1)CCC1C(C)(CNCCCC(O)c3ccc(F)cc3)CCCC21C.Cl` (stereo not drawn) [Example 2, α-(3-([1,4a-Dimethyl-1,2,3,4,4a,9,10,10a-octahydro-7-(2-propyl)-1-phenanthrenyl]methylamino)propyl)-4-fluorobenzenemethanol Hydrochloride], for which the “% Inhibition of Control Swelling” value amounted to 57%.
